Experiment [1] deals with human GLP-1R (Homo sapiens (Human), UniProt P43220, L260F). The experiment is described as follows: CHO GLP-1R Clone C6—Assay 2: HTRF cAMP cell-based functional agonist assay (low GLP-1R density). The conditions noted are these: for pEC50: CHO GLP-1R Clone C6, cAMP HTRF, geometric mean; for Emax: read-out: Assay 2 Emax (%). In general terms: TR-FRET usually uses a lanthanide donor and a delayed reading to cut background.

Experiment [2] has as its target human GLP-1R (Homo sapiens, UniProt P43220, G168S). The experiment is described as follows: CHO GLP-1R Clone H6—Assay 1: HTRF cAMP cell-based functional agonist assay (high GLP-1R density). As to conditions: for pEC50: read-out: Assay 1 EC50.
[3] abbreviates: CHO GLP-1R Clone C6, relative to saturating concentration of full agonist GLP-1 (1 μM), arithmetic mean.
The mark [4] stands for this setting: CHO GLP-1R Clone H6, cAMP HTRF, geometric mean.
The mark [5] stands for this setting: read-out: Assay 1 Emax (%), CHO GLP-1R Clone H6, relative to saturating concentration of full agonist GLP-1 (1 μM), arithmetic mean.

pEC50: −log10 of the molar value. Structures can show the parent of a compound that is named as a salt. Where two headings read alike, the source gives them in different places.

For orientation: pEC50 means −log10 of the EC50, conventionally taken in molar units. What is called Emax is the greatest response seen or fitted, relative to the assay's reference. One may read the EC50 as the concentration needed to bring the measured effect to its halfway point. The low end stands for higher potency in that assay, the high end for lower potency in that assay.

Chain of human GLP-1R (Homo sapiens (Human), UniProt P43220, L260F) (P43220 24-463 L260F): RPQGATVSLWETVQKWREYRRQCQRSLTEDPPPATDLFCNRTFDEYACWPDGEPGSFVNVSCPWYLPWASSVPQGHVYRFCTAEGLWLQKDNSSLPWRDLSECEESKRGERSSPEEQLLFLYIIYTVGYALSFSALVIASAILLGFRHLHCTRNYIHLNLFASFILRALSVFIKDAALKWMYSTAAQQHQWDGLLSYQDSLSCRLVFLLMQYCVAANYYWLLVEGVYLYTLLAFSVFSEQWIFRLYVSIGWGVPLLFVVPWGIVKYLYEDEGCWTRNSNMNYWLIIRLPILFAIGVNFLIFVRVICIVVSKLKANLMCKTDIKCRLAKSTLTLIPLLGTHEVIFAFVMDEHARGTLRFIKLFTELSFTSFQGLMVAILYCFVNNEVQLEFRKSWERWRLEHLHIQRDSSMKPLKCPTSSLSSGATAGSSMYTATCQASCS
Chain of human GLP-1R (Homo sapiens, UniProt P43220, G168S) (P43220 24-463 G168S limits assumed): as the sequence (P43220 24-463 L260F) above, with G145S, F237L counted along it

Consider `COCCn1c(CN2CCC(c3ccc(F)c(OCc4ccc(Cl)cc4F)n3)CC2)nc2ccc(C(=O)O)cc21` [Example 1A-04, 2-[(4-{6-[(4-chloro-2-fluorobenzyl)oxy]-5-fluoropyridin-2-yl}piperidin-1-yl)methyl]-1-(2-methoxyethyl)-1H-benzimidazole-6-carboxylic acid], for which the pEC50 in experiment [1] was 6.46; in experiment [2] (setting [4]), 7.68. Moreover, the Emax in experiment [1] (setting [3]) was determined as 82%; in experiment [2] (setting [5]) it was 79%.

As for `COCCn1c(CN2CCN(c3nc(OCc4ccc(Cl)cc4F)ccc3F)CC2)nc2ccc(C(=O)O)cc21` [Example 1A-05, 2-[(4-{6-[(4-chloro-2-fluorobenzyl)oxy]-3-fluoropyridin-2-yl}piperazin-1-yl)methyl]-1-(2-methoxyethyl)-1H-benzimidazole-6-carboxylic acid], the Emax in experiment [1] (setting [3]) came out at 67%; in experiment [2] (setting [5]), 75%.

In the case of `COCCn1c(CN2CCN(c3nc(OCc4ccc(Cl)cc4F)ccc3F)C[C@@H]2C)nc2ccc(C(=O)O)cc21` [Example 1A-06, 2-{[(2S)-4-{6-[(4-chloro-2-fluorobenzyl)oxy]-3-fluoropyridin-2-yl}-2-methylpiperazin-1-yl]methyl}-1-(2-methoxyethyl)-1H-benzimidazole-6-carboxylic acid], the values for the pEC50 in experiment [1] and in experiment [2] (setting [4]) were 6.46 and 7.54, respectively. In addition, the Emax was found to be 70% in experiment [1] (setting [3]) and 84% in experiment [2] (setting [5]).

Regarding `COCCn1c(CN2CCN(c3ccc(F)c(OCc4ccc(Cl)cc4F)n3)C[C@@H]2C)nc2ccc(C(=O)O)cc21` [Example 1A-07, 2-{[(2S)-4-{6-[(4-chloro-2-fluorobenzyl)oxy]-5-fluoropyridin-2-yl}-2-methylpiperazin-1-yl]methyl}-1-(2-methoxyethyl)-1H-benzimidazole-6-carboxylic acid], the negative-log EC50 (pEC50) in experiment [1] was 7.35; in experiment [2] (setting [4]), 8.41. Besides, the Emax in experiment [1] (setting [3]) and in experiment [2] (setting [5]) was 82% in each case.

As for `COCCn1c(CN2CCN(c3ccc(F)c(OCc4ccc(C#N)cc4)n3)C[C@@H]2C)nc2ccc(C(=O)O)cc21` [Example 1A-08, 2-{[(2S)-4-{6-[(4-cyanobenzyl)oxy]-5-fluoropyridin-2-yl}-2-methylpiperazin-1-yl]methyl}-1-(2-methoxyethyl)-1H-benzimidazole-6-carboxylic acid], the negative-log EC50 (pEC50) in experiment [1] was 6.92; in experiment [2] (setting [4]), 8.15. Besides, the values for the Emax in experiment [1] (setting [3]) and in experiment [2] (setting [5]) were 85% and 81%, respectively.

Regarding `[2H]C([2H])(Oc1cccc(C2CCN(Cc3nc4ccc(C(=O)O)cc4n3C[C@@H]3CCO3)CC2)n1)c1ccc(C#N)cc1F` [Example 1A-09, 2-{[4-(6-{[(4-cyano-2-fluorophenyl)(methyl-d2)]oxy}pyridin-2-yl)piperidin-1-yl]methyl}-1-[(2S)-oxetan-2-ylmethyl]-1H-benzimidazole-6-carboxylic acid], the Emax in experiment [1] (setting [3]) was 120%; in experiment [2] (setting [5]), 92%.

Consider `COCCn1c(CN2CCC(c3cccc(OCc4ccccc4)n3)CC2)nc2ccc(C(=O)O)cc21` [Example 1A-10, 2-({4-[6-(benzyloxy)pyridin-2-yl]piperidin-1-yl}methyl)-1-(2-methoxyethyl)-1H-benzimidazole-6-carboxylic acid], for which the pEC50 in experiment [1] was 5.05; in experiment [2] (setting [4]), 6.03. Also, the figures for the Emax in experiment [1] (setting [3]) and in experiment [2] (setting [5]) were 100% and 86%, respectively.

Take `COCCn1c(CN2CCN(c3cccc(OCc4ccc(C#N)cc4)n3)CC2)nc2ccc(C(=O)O)cc21` [Example 1A-11, 2-[(4-{6-[(4-cyanobenzyl)oxy]pyridin-2-yl}piperazin-1-yl)methyl]-1-(2-methoxyethyl)-1H-benzimidazole-6-carboxylic acid]: the negative logarithm of the EC50 (pEC50) in experiment [1] is 6.28; in experiment [2] (setting [4]), 7.72. For the same compound, the maximal response (Emax) turned out to be 97% in experiment [1] (setting [3]) and 76% in experiment [2] (setting [5]).

`COCCn1c(CN2CCN(c3cccc(OCc4ccc(Cl)cc4F)n3)[C@H](C)C2)nc2ccc(C(=O)O)cc21` [Example 1A-14, 2-{[(3R)-4-{6-[(4-chloro-2-fluorobenzyl)oxy]pyridin-2-yl}-3-methylpiperazin-1-yl]methyl}-1-(2-methoxyethyl)-1H-benzimidazole-6-carboxylic acid]: the values for the pEC50 in experiment [1] and in experiment [2] (setting [4]) were 5.80 and 7.33, respectively. Moreover, the maximum response (Emax) was 81% in experiment [1] (setting [3]) and 71% in experiment [2] (setting [5]).

For the compound `Cn1cncc1Cn1c(CN2CCC(c3cccc(OCc4ccc(C#N)cc4F)n3)CC2)nc2ccc(C(=O)O)cc21` [Example 1A-16, 2-[(4-{6-[(4-cyano-2-fluorobenzyl)oxy]pyridin-2-yl}piperidin-1-yl)methyl]-1-[(1-methyl-1H-imidazol-5-yl)methyl]-1H-benzimidazole-6-carboxylic acid], the figures for the pEC50 in experiment [1] and in experiment [2] (setting [4]) were 7.85 and 8.82, respectively. The Emax in experiment [1] (setting [3]) is 82%; in experiment [2] (setting [5]) it was 86%.

In the case of `Cn1cncc1Cn1c(CN2CCC(c3cccc(OCc4ccc(F)cc4F)n3)CC2)nc2ccc(C(=O)O)cc21` [Example 1A-17, 2-[(4-{6-[(2,4-difluorobenzyl)oxy]pyridin-2-yl}piperidin-1-yl)methyl]-1-[(1-methyl-1H-imidazol-5-yl)methyl]-1H-benzimidazole-6-carboxylic acid], the results for the pEC50 in experiment [1] and in experiment [2] (setting [4]) were 7.35 and 8.62, respectively. For the same compound, the maximal effect (Emax) in experiment [1] (setting [3]) was found to be 95%; in experiment [2] (setting [5]) it was 87%.

Take `CCCn1cnnc1Cn1c(CN2CCC(c3cccc(OCc4ccc(Cl)cc4F)n3)CC2)nc2ccc(C(=O)O)cc21` [Example 1A-18, 2-[(4-{6-[(4-chloro-2-fluorobenzyl)oxy]pyridin-2-yl}piperidin-1-yl)methyl]-1-[(4-propyl-4H-1,2,4-triazol-3-yl)methyl]-1H-benzimidazole-6-carboxylic acid]: the pEC50 in experiment [1] was 6.96; in experiment [2] (setting [4]) it was 8.19. For the same compound, the Emax turned out to be 94% in experiment [1] (setting [3]) and 90% in experiment [2] (setting [5]).

Consider `C[C@H]1CN(c2cccc(OCc3ccc(Cl)cc3F)n2)CCN1Cc1nc2ccc(C(=O)O)cc2n1C[C@@H]1CCO1` [Example 1A-19, 2-{[(2S)-4-{6-[(4-chloro-2-fluorobenzyl)oxy]pyridin-2-yl}-2-methylpiperazin-1-yl]methyl}-1-[(2S)-oxetan-2-ylmethyl]-1H-benzimidazole-6-carboxylic acid], for which the negative-log EC50 (pEC50) in experiment [1] was 8.49; in experiment [2] (setting [4]) it was 9.55. For the same compound, the Emax in experiment [1] (setting [3]) and in experiment [2] (setting [5]) was 84% throughout.

As to `Cn1cnnc1Cn1c(CN2CCC(c3cccc(OCc4ccc(C#N)cc4F)n3)CC2)nc2ccc(C(=O)O)cc21` [Example 1A-20, 2-[(4-{6-[(4-cyano-2-fluorobenzyl)oxy]pyridin-2-yl}piperidin-1-yl)methyl]-1-[(4-methyl-4H-1,2,4-triazol-3-yl)methyl]-1H-benzimidazole-6-carboxylic acid], the pEC50 in experiment [1] was 6.06; in experiment [2] (setting [4]), 7.36. For the same compound, the Emax in experiment [1] (setting [3]) was found to be 90%; in experiment [2] (setting [5]) it was 81%.

For the compound `N#Cc1ccc(COc2cccc(C3CCN(Cc4nc5ccc(C(=O)O)cc5n4C[C@@H]4CCCO4)CC3)n2)c(F)c1` [Example 1A-21, 2-[(4-{6-[(4-cyano-2-fluorobenzyl)oxy]pyridin-2-yl}piperidin-1-yl)methyl]-1-[(2S)-tetrahydrofuran-2-ylmethyl]-1H-benzimidazole-6-carboxylic acid], the pEC50 in experiment [1] was 7.12; in experiment [2] (setting [4]), 8.31. The maximal response (Emax) came out at 83% in experiment [1] (setting [3]) and 77% in experiment [2] (setting [5]).

Turning to `CO[C@@H]1CCC[C@H]1n1c(CN2CCC(c3cccc(OCc4ccc(Cl)cc4F)n3)CC2)nc2ccc(C(=O)O)cc21` [Example 1A-27, 2-[(4-{6-[(4-chloro-2-fluorobenzyl)oxy]pyridin-2-yl}piperidin-1-yl)methyl]-1-[(1R,2R)-2-methoxycyclopentyl]-1H-benzimidazole-6-carboxylic acid], the pEC50 in experiment [1] is 5.85; in experiment [2] (setting [4]), 6.72. Further, the Emax in experiment [1] (setting [3]) was 47%; in experiment [2] (setting [5]), 91%.

As for `CO[C@H]1C[C@@H](Cn2c(CN3CCC(c4cccc(OCc5ccc(Cl)cc5F)n4)CC3)nc3ccc(C(=O)O)cc32)C1` [Example 1A-28, 2-[(4-{6-[(4-chloro-2-fluorobenzyl)oxy]pyridin-2-yl}piperidin-1-yl)methyl]-1-[(cis-3-methoxycyclobutyl)methyl]-1H-benzimidazole-6-carboxylic acid], the pEC50 in experiment [1] was 5.11. Further, the Emax in experiment [1] (setting [3]) worked out at 100%; in experiment [2] (setting [5]) it was 92%. The response in experiment [2] (Assay 1 EC50 (nM), CHO GLP-1R Clone H6, cAMP HTRF, geometric mean) was half-maximal at 300 nM (EC50).

In the case of `COC[C@@H]1C[C@H]1Cn1c(CN2CCC(c3cccc(OCc4ccc(Cl)cc4F)n3)CC2)nc2ccc(C(=O)O)cc21` [Example 1A-30, 2-[(4-{6-[(4-chloro-2-fluorobenzyl)oxy]pyridin-2-yl}piperidin-1-yl)methyl]-1-{[(1R,2R)-2-(methoxymethyl)cyclopropyl]methyl}-1H-benzimidazole-6-carboxylic acid], the pEC50 in experiment [1] was 5.39; in experiment [2] (setting [4]), 6.82. The Emax in experiment [1] (setting [3]) was found to be 110%; in experiment [2] (setting [5]) it was 86%.

As to `Cn1c(CN2CCC(c3cccc(OCc4ccc(Cl)cc4F)n3)CC2)nc2ccc(C(=O)O)nc21` [Example 2A-01, 2-((4-(6-((4-Chloro-2-fluorobenzyl)oxy)pyridin-2-yl)piperidin-1-yl)methyl)-3-methyl-3H-imidazo[4,5-b]pyridine-5-carboxylic acid hydrochloride], the pEC50 in experiment [1] is 5.74; in experiment [2] (setting [4]), 7.05. The values for the Emax in experiment [1] and in experiment [2] (read-out: Assay 1 Emax (%)) were 89% and 76%, respectively.

(Values after US10208019B2, “GLP-1 receptor agonists and uses thereof” (Pfizer Inc., priority 2016, dated 2019).)
